Like-named read-outs stand apart in the source and are kept apart here.
How the values were obtained:
[1] = tested on: Motor activity (apomorphine hydrochloride); test: Antiapomorphine effect, Experiment 1: motor activity (Automex) after apomorphine; assay type: in vivo, male dd mice; details: 30 mg/kg intraperitoneal, 30 min before 0.5 mg/kg s.c. apomorphine hydrochloride, activity during 30 minutes, control 566
Experimental: (§1) Antiapomorphine effect was measured by the following methods.
Motor activity was measured with Automex (Columbus Instruments, U.S.A.) in two groups of 3 male dd mice. Thirty minutes after intraperitoneal administration of each test compound (30 mg/kg), 0.5 mg/kg of apomorphine hydrochloride was injected subcutaneously. Immediately after the apomorphine injection, the animals were placed in the transparent plastic cage (26×42×20 cm) and motor activity during 30 minutes was measured. Student's was calculated to indicate the level of significance of the change from control.

[2] = tested on: Motor activity (apomorphine hydrochloride); test: Antiapomorphine effect, Experiment 2: motor activity (Animex) after apomorphine, ED50; assay type: in vivo, male dd mice; details: Mus musculus, read-out: ED50 (dose which reduced the motor activity by 50% as compared with control)
Experimental: as §1
Motor activity was measured with Animex (Columbus Instruments, U.S.A.) in three groups of 5 male dd mice. Sixty minutes after oral administration of each test compound, 0.5 mg/kg of apomorphine hydrochloride was injected subcutaneously. The measurement of motor activity during 20 minutes started just after the apomorphine injection. ED50 was determined graphically as the dose which reduced the motor activity by 50% as compared with control.

SMILES	Motor Activity [1]	ED50 ([2]; po) [mg/kg]	ED50 ([2]; Experiment 2, oral, 60 min before 0.5 mg/kg s.c. apomorphine hydrochloride, activity during 20 minutes) [mg/kg]
O=c1[nH]c2cc(Cl)ccc2n1C1CCN(CC2CCC(c3ccc(F)cc3)O2)CC1 (stereo not shown) [H]	5	12	
O=c1[nH]c2cc(Cl)ccc2n1C1CCN(CC2COC(c3ccc(F)cc3)C2)CC1 (stereo not shown) [E]	23	0.4	
O=C1CCN(C2CCN(CC3COC(c4ccc(F)cc4)C3)CC2)C(=O)N1c1ccccc1 (stereo not shown) [D]	28		25
O=c1[nH]c2ccccc2n1C1CCN(CC2COC(c3ccc(F)cc3)C2)CC1 (stereo not shown) [B]	4	2.8	
O=c1[nH]c2cc(Cl)ccc2n1C1CCN(C[C@@H]2CO[C@H](c3ccc(F)cc3)C2)CC1 (relative stereo) [F]	5	2.4	
O=c1[nH]c2cc(Cl)ccc2n1C1CCN(C[C@H]2CO[C@H](c3ccc(F)cc3)C2)CC1 (relative stereo) [G]	8	0.9	
O=C1NCN(c2ccccc2)C12CCN(CC1COC(c3ccc(F)cc3)C1)CC2 (stereo not shown) [C]	0	1.4	
Fc1ccc(C2CC(CN3CCC(n4c(=S)[nH]c5ccccc54)CC3)CO2)cc1 (stereo not shown) [A]	1	3.2	

— US4414216A, “Tetrahydrofuran compounds and analogs thereof” (Yoshitomi Phamaceutical Industries, Ltd., priority 1981, dated 1983)
